According to patent US10035800B2 (AbbVie Inc., priority 2013, dated 2018):
pKi: −log10 of the molar value.

What was measured:
BRD4 (BDII_E352-M457) = target: T1, BRD4 (BDII_E352-M457) (Homo sapiens, UniProt O60885); experiment: TR-FRET bromodomain binding assay, second bromodomain of BRD4; conditions: 30 nM probe
T1 construct: protocol; made in house
Description: (§1) Bromodomain Domain Binding Assay
(§2) A time-resolved fluorescence resonance energy transfer (TR-FRET) assay was used to determine the affinities of compounds of the Examples listed in Table 1 for each bromodomain of BRD4. His-tagged first (BD1: amino acids K57-E168) and second (BD2: amino acids […]) bromodomains of BRD4 were expressed and purified. An Alexa647-labeled BET-inhibitor was used as the fluorescent probe in the assay.
(§3) Compound dilution series were prepared in DMSO via an approximately 3-fold serial dilution from one of the following: […]
(§4) Assay method E: 0.47 mM to 7.8 nM […]
(§5) Assay method G: 0.047 mM to 0.78 nM
(§6) or 5-fold serial dilution from one of the following: […]
(§7) Assay method B: 2.5 mM-797 nM […]
(§8) For Assay methods B, E, and G: Compound dilutions were added directly into white, low-volume assay plates (Perkin Elmer Proxiplate 384 Plus#6008280) using a Labcyte Echo in conjunction with Labcyte Access and Thermo Multidrop CombinL robotics. Compounds were then suspended in eight microliters (μL) of assay buffer (20 mM Sodium Phosphate, pH 6.0, 50 mM NaCl, 1 mM Ethylenediaminetetraacetic acid disodium salt dihydrate, 0.01% Triton X-100, 1 mM DL-Dithiothreitol) containing His-tagged bromodomain, Europium-conjugated anti-His antibody (Invitrogen PV5596) and Alexa-647-conjugated probe.
(§9) The final concentration of 1× assay mixture for assay methods A, B, C, D, E, F, and G contains 2% DMSO, 8 nM His-tagged bromodomain, 1 nM Europium-conjugated anti-His-tag antibody and 100 nM or 30 nM probe (for BDI or BDII, respectively) and compound concentration in the range of: 50 μM-16 nM for method A, 49.02 μM-15.63 nM for method B, 25 μM-423 pM for method C, 10 μM-169 pM for method D, 9.19 μM-150 pM for method E, 5 μM-85 pM for method F, and 0.92 μM-15 pM for method G.
(§10) After a one-hour equilibration at room temperature, TR-FRET ratios were determined using an Envision multilabel plate reader (Ex 340, Em 495/520).
(§11) TR-FRET data were normalized to the means of 24 no-compound controls (“high”) and 8 controls containing 1 μM un-labeled probe (“low”). Percent inhibition was plotted as a function of compound concentration and the data were fit with the 4 parameter logistic equation to obtain IC50s. Inhibition constants (Ki) were calculated from the IC50s, probe Kd and probe concentration. Typical Z′ values were between 0.65 and 0.75. The minimum significant ratio was determined to evaluate assay reproducibility (Eastwood et al., (2006) J Biomol Screen, 11: 253-261). The MSR was determined to be 2.03 for BDI and 1.93 for BDII, and a moving MSR (last six run MSR overtime) for both BDI and BDII was typically <3.

BRD4 (BDI_K57-E168) = target: T2, BRD4 (BDI_K57-E168) (Homo sapiens, UniProt O60885); experiment: TR-FRET bromodomain binding assay, first bromodomain of BRD4; conditions: 100 nM probe
T2 construct: BD1: amino acids K57-E168; made in house
Description: as §1, §2, §3, §4, §5, §6, §7, §8, §9, §10, §11

[1] = TR-FRET assay protocol G (compound 0.92 μM-15 pM)
[2] = TR-FRET assay protocol E (compound 9.19 μM-150 pM)

pKi (BRD4 (BDII_E352-M457); [1]) | pKi (BRD4 (BDI_K57-E168); [1]) | pKi (BRD4 (BDII_E352-M457); [2]) | pKi (BRD4 (BDI_K57-E168); [2]) | Compound
7.61 | 8.14 |  |  | CCOC(=O)C1c2c[nH]c3c(=O)n(C)cc(c23)-c2cc(C)cnc2N1c1ccc(F)cc1 (stereo not drawn) [Example 43, ethyl 4-(4-fluorophenyl)-7,10-dimethyl-11-oxo-3,4,10,11-tetrahydro-1H-1,4,5,10-tetraazadibenzo[cd,f]azulene-3-carboxylate]
7.71 | 7.78 |  |  | N-(3-methoxypropyl)-10-methyl-7-((methylsulfonyl)methyl)-11-oxo-10,11-dihydro-1H-1,4,10-triazadibenzo[cd,f]azulene-4(3H)-carboxamide [Example 73]
< 6.39 | < 6.62 |  |  | CCOC(=O)C1Nc2ncc(F)cc2-c2cn(C)c(=O)c3[nH]cc1c23 (stereo not drawn) [Example 39, ethyl 7-fluoro-10-methyl-11-oxo-3,4,10,11-tetrahydro-1H-1,4,5,10-tetraazadibenzo[cd,f]azulene-3-carboxylate]
7.22 | 7.33 |  |  | Cn1cc2c3c(c[nH]c3c1=O)C(C(=O)NCCO)N(c1ccc(F)cc1F)c1ccc(CS(C)(=O)=O)cc1-2 (stereo not drawn) [Example 162, 4-(2,4-difluorophenyl)-N-(2-hydroxyethyl)-10-methyl-7-((methylsulfonyl)methyl)-11-oxo-3,4,10,11-tetrahydro-1H-1,4,10-triazadibenzo[cd,f]azulene-3-carboxamide]
< 6.39 | < 6.62 |  |  | Cn1cc2c3c(c[nH]c3c1=O)C(c1cc(C(C)(C)C)cc(C(C)(C)C)c1)N(c1ccc(F)cc1F)c1ccc(CS(C)(=O)=O)cc1-2 (stereo not drawn) [Example 223, 3-(3,5-di-tert-butylphenyl)-4-(2,4-difluorophenyl)-10-methyl-7-((methylsulfonyl)methyl)-3,4-dihydro-1H-1,4,10-triazadibenzo[cd,f]azulen-11(10H)-one]
8.04 | 8.38 |  |  | COCCC(C)N1Cc2c[nH]c3c(=O)n(C)cc(c23)-c2cc(CS(C)(=O)=O)ccc21 (racemic) [Example 186, 4-(4-methoxybutan-2-yl)-10-methyl-7-((methylsulfonyl)methyl)-3,4-dihydro-1H-1,4,10-triazadibenzo[cd,f]azulen-11(10H)-one]
 |  | 6.12 | 6.12 | Cn1cc2c3c(c[nH]c3c1=O)CNc1ccc(CS(C)(=O)=O)cc1-2 [Example 5, 10-methyl-7-((methylsulfonyl)methyl)-3,4-dihydro-1H-1,4,10-triazadibenzo[cd,f]azulen-11(10H)-one]
8.25 | 8.43 |  |  | Cn1cc2c3c(c[nH]c3c1=O)CN(C(=O)OCC(C)(C)C)c1ccc(CS(C)(=O)=O)cc1-2 [Example 92, neopentyl 10-methyl-7-((methylsulfonyl)methyl)-11-oxo-10,11-dihydro-1H-1,4,10-triazadibenzo[cd,f]azulene-4(3H)-carboxylate]
8.17 | 8.36 |  |  | CC(C1CCOC1=O)N1Cc2c[nH]c3c(=O)n(C)cc(c23)-c2cc(CS(C)(=O)=O)ccc21 (stereo not drawn) [Example 184, 10-methyl-7-((methylsulfonyl)methyl)-4-(1-(2-oxotetrahydrofuran-3-yl)ethyl)-3,4-dihydro-1H-1,4,10-triazadibenzo[cd,f]azulen-11(10H)-one]
8.56 | 8.32 |  |  | COCCC(=O)N1Cc2c[nH]c3c(=O)n(C)cc(c23)-c2cc(CS(C)(=O)=O)ccc21 [Example 101, 4-(3-methoxypropanoyl)-10-methyl-7-((methylsulfonyl)methyl)-3,4-dihydro-1H-1,4,10-triazadibenzo[cd,f]azulen-11(10H)-one]
8.84 | 8.23 |  |  | CC(C)C(=O)N1Cc2c[nH]c3c(=O)n(C)cc(c23)-c2cc(CS(C)(=O)=O)ccc21 [Example 54, 4-isobutyryl-10-methyl-7-((methylsulfonyl)methyl)-3,4-dihydro-1H-1,4,10-triazadibenzo[cd,f]azulen-11(10H)-one]
7.10 | 7.09 |  |  | Cn1cc2c3c(c[nH]c3c1=O)C(C(=O)NCC(C)(C)O)N(c1ccc(F)cc1F)c1ccc(CS(C)(=O)=O)cc1-2 (stereo not drawn) [Example 165, 4-(2,4-difluorophenyl)-N-(2-hydroxy-2-methylpropyl)-10-methyl-7-((methylsulfonyl)methyl)-11-oxo-3,4,10,11-tetrahydro-1H-1,4,10-triazadibenzo[cd,f]azulene-3-carboxamide]
7.13 | 7.22 |  |  | Cn1cc2c3c(c[nH]c3c1=O)C(C(=O)NC1(CO)CC1)N(c1ccc(F)cc1F)c1ccc(CS(C)(=O)=O)cc1-2 (racemic) [Example 166, 4-(2,4-difluorophenyl)-N-(1-(hydroxymethyl)cyclopropyl)-10-methyl-7-((methylsulfonyl)methyl)-11-oxo-3,4,10,11-tetrahydro-1H-1,4,10-triazadibenzo[cd,f]azulene-3-carboxamide]
7.86 | 7.99 |  |  | COCCOC(=O)N1Cc2c[nH]c3c(=O)n(C)cc(c23)-c2cc(CS(C)(=O)=O)ccc21 [Example 86, 2-methoxyethyl 10-methyl-7-((methylsulfonyl)methyl)-11-oxo-10,11-dihydro-1H-1,4,10-triazadibenzo[cd,f]azulene-4(3H)-carboxylate]
7.88 | 8.03 |  |  | Cn1cc2c3c(c[nH]c3c1=O)CN(Cc1ccccc1OCC(N)=O)c1ccc(CS(C)(=O)=O)cc1-2 [Example 262, 2-(2-((10-methyl-7-((methylsulfonyl)methyl)-11-oxo-10,11-dihydro-1H-1,4,10-triazadibenzo[cd,f]azulen-4(3H)-yl)methyl)phenoxy)acetamide]
8.75 | 8.46 |  |  | CCCCCOC(=O)N1Cc2c[nH]c3c(=O)n(C)cc(c23)-c2cc(CS(C)(=O)=O)ccc21 [Example 88, pentyl 10-methyl-7-((methylsulfonyl)methyl)-11-oxo-10,11-dihydro-1H-1,4,10-triazadibenzo[cd,f]azulene-4(3H)-carboxylate]

Compound | pKi (BRD4 (BDII_E352-M457); [1]) | pKi (BRD4 (BDI_K57-E168); [1]) | pKi (BRD4 (BDII_E352-M457); [2]) | pKi (BRD4 (BDI_K57-E168); [2])
CN(C)C(NCC1c2c[nH]c3c(=O)n(C)cc(c23)-c2cc(CS(C)(=O)=O)ccc2N1c1ccc(F)cc1F)=[N+](C)C (stereo not drawn) [Example 130, N-((((4-(2,4-difluorophenyl)-10-methyl-7-((methylsulfonyl)methyl)-11-oxo-3,4,10,11-tetrahydro-1H-1,4,10-triazadibenzo[cd,f]azulen-3-yl)methyl)amino)(dimethylamino)methylene)-N-methylmethanaminium] | 7.84 | 6.67 |  | 
7-fluoro-10-methyl-3,4-dihydro-1H-1,4,5,10-tetraazadibenzo[cd,f]azulen-11(10H)-one [Example 38] | < 6.39 | < 6.62 |  | 
CN1CCC(N2Cc3c[nH]c4c(=O)n(C)cc(c34)-c3cc(CS(C)(=O)=O)ccc32)CC1 [Example 181] | 7.77 | 8.48 |  | 
4-([1,1′-biphenyl]−4-ylsulfonyl)-10-methyl-7-((methylsulfonyl)methyl)-3,4-dihydro-1H-1,4,10-triazadibenzo[cd,f]azulen-11(10H)-one [Example 75] | < 6.39 | < 6.62 |  | 
tert-butyl 4-(3-(4-(2,4-difluorophenyl)-10-methyl-7-((methylsulfonyl)methyl)-11-oxo-3,4,10,11-tetrahydro-1H-1,4,10-triazadibenzo[cd,f]azulen-3-yl)propanamido)piperidine-1-carboxylate [Example 126] | 7.10 | 7.27 |  | 
